Source: ChEMBL document CHEMBL2384931, “PAK1: A Therapeutic Target for Cancer Treatment” (ACS Med Chem Lett, 2013)
pIC50, pKi: −log10 of the molar value.

Assays:
[1] = biological target: Serine/threonine-protein kinase PAK 1 (Homo sapiens, UniProt Q13153); test: Inhibition of human recombinant GST-tagged PAK1 kinase domain-mediated 5FAM-RRRLSFAEPG phosphorylation expressed in Sf9 cells preincubated for 10 mins prior to substrate addition measured after 30 mins by microfluidic mobility shift assay
Sequence of Serine/threonine-protein kinase PAK 1 (Q13153 whole entry, the tested form may be a part): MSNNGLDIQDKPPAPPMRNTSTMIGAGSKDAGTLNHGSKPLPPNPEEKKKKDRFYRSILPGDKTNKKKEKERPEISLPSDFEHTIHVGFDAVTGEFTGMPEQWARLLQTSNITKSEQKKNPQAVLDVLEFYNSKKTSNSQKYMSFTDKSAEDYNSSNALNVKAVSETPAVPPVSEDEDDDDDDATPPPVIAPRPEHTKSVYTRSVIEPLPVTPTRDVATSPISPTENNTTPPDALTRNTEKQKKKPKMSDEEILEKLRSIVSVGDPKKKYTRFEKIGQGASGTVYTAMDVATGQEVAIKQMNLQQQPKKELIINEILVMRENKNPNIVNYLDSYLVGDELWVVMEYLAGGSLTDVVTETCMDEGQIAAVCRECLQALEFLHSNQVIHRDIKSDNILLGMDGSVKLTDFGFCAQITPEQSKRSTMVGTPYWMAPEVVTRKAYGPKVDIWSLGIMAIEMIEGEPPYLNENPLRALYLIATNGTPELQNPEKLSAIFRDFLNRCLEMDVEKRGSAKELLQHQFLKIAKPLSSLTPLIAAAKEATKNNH

[2] = biological target: Serine/threonine-protein kinase PAK 3 (Homo sapiens, UniProt O75914); test: Inhibition of PAK3-mediated MEK1 phosphorylation at Ser298 in human EBC1 cells after 2 hrs by HTRF assay; format: cell-based; settings: pooled result: one value given for 3 cell lines, strains, targets or settings
Sequence of Serine/threonine-protein kinase PAK 3 (O75914 whole entry): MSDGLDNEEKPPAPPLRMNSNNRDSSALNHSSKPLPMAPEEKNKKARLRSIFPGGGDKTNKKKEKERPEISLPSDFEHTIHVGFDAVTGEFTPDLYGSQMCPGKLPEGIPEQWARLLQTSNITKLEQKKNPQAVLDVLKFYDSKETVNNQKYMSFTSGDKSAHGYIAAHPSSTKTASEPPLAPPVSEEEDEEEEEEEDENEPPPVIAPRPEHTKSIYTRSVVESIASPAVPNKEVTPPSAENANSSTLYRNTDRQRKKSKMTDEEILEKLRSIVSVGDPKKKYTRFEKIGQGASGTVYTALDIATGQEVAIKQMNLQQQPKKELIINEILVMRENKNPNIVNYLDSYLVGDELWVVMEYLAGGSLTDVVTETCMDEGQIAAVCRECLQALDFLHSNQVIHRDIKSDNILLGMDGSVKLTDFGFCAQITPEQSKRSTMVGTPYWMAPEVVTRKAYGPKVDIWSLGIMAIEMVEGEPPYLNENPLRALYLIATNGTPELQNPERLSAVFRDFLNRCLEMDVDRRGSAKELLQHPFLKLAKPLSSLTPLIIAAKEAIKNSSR

pKi [1] | pIC50 [2] | SMILES
8.29 | 6.61 | C[C@H](Nc1nccc(Nc2cc(C3CC3(F)F)[nH]n2)n1)c1ccc2[nH]cnc2c1 (stereo not given in full)
– | 7.15 | CC(CO)N(Cc1cc(F)cc2[nH]ncc12)c1nccc(Nc2cc(C3CC3)[nH]n2)n1 (stereo not given)
– | 6.88 | C[C@H](Nc1nccc(Nc2cc(C3CCC3)[nH]n2)n1)c1ccc2[nH]ccc2c1
– | 7.19 | COCCN(Cc1cc(F)cc2[nH]ncc12)c1nccc(Nc2cc(C3CC3)[nH]n2)n1
